Source: patent US20070043035A1, “Novel compounds and their use in medicine: process for their preparation and pharmaceutical compositions containing them” (priority 2003, published 2007)

How the values were obtained:
hPPARγ1 = target: T1, hPPARγ1 (Homo sapiens, UniProt P37231); assay: Determination of hPPARγ activity (GAL4-LBD luciferase reporter in HEK-293 cells); assay type: cell-based; settings: compound concentration 1 μM
T1 construct: expressed in transfected cells; host or cells: HEK-293
T1 sequence (P37231 238-503 limits assumed): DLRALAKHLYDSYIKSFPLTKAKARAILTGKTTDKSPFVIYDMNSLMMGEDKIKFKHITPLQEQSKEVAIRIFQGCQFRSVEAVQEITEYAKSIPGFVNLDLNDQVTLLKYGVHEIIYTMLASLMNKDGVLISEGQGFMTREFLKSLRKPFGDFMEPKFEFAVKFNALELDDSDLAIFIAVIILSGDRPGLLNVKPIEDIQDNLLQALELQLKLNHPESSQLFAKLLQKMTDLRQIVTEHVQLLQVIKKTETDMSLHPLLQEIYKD
Experimental: Ligand binding domain of hPPARγ1 is fused to DNA binding domain of Yeast transcription factor GAL4 in eucaryotic expression vector. Using lipofectamine (Gibco BRL, USA) as transfecting reagent HEK-293 cells are transfected with this plasmid and a reporter plasmid harboring the luciferase gene driven by a GAL4 specific promoter. Compound can be added at 1 μM. concentration after 48 hrs of transfection and incubated overnight Luciferase activity as a function of drug binding/activation capacity of PPARγ1 will be measured using Packard Luclite kit (Packard, USA) in Packard Top Count (Ivan Sadowski, Brendan Bell, Peter Broag and Melvyn Hollis. Gene. 1992. 118:137-141; Guide to Eukaryotic Transfections with Cationic Lipid Reagents. Life Technologies, GIBCO BRL, USA).

hPPARα = target: T2, hPPARα (Homo sapiens, UniProt Q07869); assay: Determination of hPPARα activity (GAL4-LBD luciferase reporter in HEK-293 cells); assay type: cell-based; settings: compound concentration 50 μM
T2 construct: expressed in transfected cells; host or cells: HEK-293
T2 sequence (Q07869 239-466 limits assumed): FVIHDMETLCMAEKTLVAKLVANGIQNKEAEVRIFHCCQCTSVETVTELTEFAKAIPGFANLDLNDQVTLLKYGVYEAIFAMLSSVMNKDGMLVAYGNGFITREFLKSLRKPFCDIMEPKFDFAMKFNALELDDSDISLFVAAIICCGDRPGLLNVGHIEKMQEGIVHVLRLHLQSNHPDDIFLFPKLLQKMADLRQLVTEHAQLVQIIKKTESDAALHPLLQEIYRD
Experimental: Ligand binding domain of hPPARα was fused to DNA binding domain of Yeast transcription factor Gal 4 in eucaryotic expression vector. Using superfect (Qiagen, Germany) as transfecting reagent HEK-293 cells are transfected with this plasmid and a reporter plasmid harboring the luciferase gene driven by a GAL4 specific promoter. Compound can be added at different concentrations after 42 hrs of transfection and incubated overnight. Luciferase activity as a function of compound binding/activation capacity of PPARα will be measured using Packard Luclite kit (Packard, USA) in Top Count (Ivan Sadowski, Brendan Bell, Peter Broag and Melvyn Hollis. Gene. 1992. 118: 137-141; Superfect Transfection Reagent Handbook. February 1997. Qiagen, Germany).

Swiss albino mice = assay: Plasma triglyceride and total cholesterol lowering activity in Swiss albino mice; assay type: in vivo, mouse; settings: dose 3 mg/kg, oral, 6 days
Experimental: Male Swiss albino mice (SAM) were obtained from NIN and housed in DRF animal house. All these animals are maintained under 12 hour light and dark cycle at 25±1° C. Animals are given standard laboratory chow (NIN, Hyderabad, India) and water, ad libitum. SAM of 20-25 g body weight range and Guinea pigs of 500-700 g body weight range are used (Oliver, P., Plancke, M. O., Marzin, D., Clavey, V., Sauzieres, J and Fruchart, J. C. Effects of fenofibrate, gemfibrozil and nicotinic acid on plasma lipoprotein levels in normal and hyperlipidemic mice. Atherosclerosis. 1988. 70: 107-114).
The test compounds can be administered orally to Swiss albino mice at 0.3 to 30 mg/kg/day dose for 6 days. Control mice are treated with vehicle (0.25% Carboxymethylcellulose; dose 10 ml/kg). The test compounds are administered orally to Guinea pigs at 0.3 to 30 mg/kg/day dose for 6 days. Control animals are treated with vehicle (0.25% Carboxymethylcellulose; dose 5 ml/kg).
The blood samples can be collected in fed state 1 hour after drug administration on 0 and 6 day of treatment. […]
(§1) Formulae for Calculation: 1. Percent reduction in Blood sugar triglycerides/total cholesterol will be calculated according to the formula: [formula] […] LDL and VLDL cholesterol levels will be calculated according to the formula: [formula] […]

[1] = system: hypercholesterolemic Sprague Dawley rats; assay: Plasma triglyceride and cholesterol lowering activity in hypercholesterolemic rat models; assay type: in vivo; settings: dose 1 mg/kg, oral, 3 days
Experimental: Male Sprague Dawley rats (NIN stock) were bred in DRF animal house. Animals were maintained under 12 hour light and dark cycle at 25±1° C. Rats of 180-200 gram body weight range were used for the experiment. Animals are made hypercholesterolemic by feeding 2% cholesterol and 1% sodium cholate mixed with standard laboratory chow [National Institute of Nutrition (NE), Hyderabad, India] for 6 days. Throughout the experimental period the animals were maintained on the same diet (Petit, D., Bonnefis, M. T., Rey, C and Infante, P Effects of ciprofibrate on liver lipids and lipoprotein synthesis in normo- and hyperlipidemic rats. Atherosclerosis. 1988. 74: 215-225).
The test compounds can be administered orally at a dose 0.1 to 30 mg/kg/day for 3 days. Control group was treated with vehicle alone (0.25% Carboxymethylcellulose; dose 10 ml/kg).
The blood samples can be collected in fed state 1 hour after drug administration on 0 and 3 day of compound treatment The blood can be collected from the retro-orbital sinus through heparinised capillary in EDTA containing tubes. After centrifugation, plasma sample will be separated for total cholesterol, HDL and triglyceride estimations. Measurement of plasma triglyceride, total cholesterol and HDL are were done using commercial kits (Dr. Reddy's Laboratory, Diagnostic Division, India). LDL and VLDL cholesterol can be calculated from the data obtained for total cholesterol, HDL and triglyceride. The reduction of various parameters examined are calculated according to the formula.
(§2) Formulae for Calculation: 1. Percent reduction in Blood sugar triglycerides/total cholesterol will be calculated according to the formula: [formula] OC=Zero day control group value OT=Zero day treated group value TC=Test day control group value TT=Test day treated group value 2. LDL and VLDL cholesterol levels will be calculated according to the formula: [formula] [formula]

C57BL/Ks-db/db mice = assay: Efficacy in genetic models: triglyceride lowering in db/db mice; assay type: in vivo, mouse; settings: dose 1 mg/kg, oral gavage daily for 6 days, plasma
Description: Mutation in colonies of laboratory animals and different sensitivities to dietary regimens has made the development of animal models with non-insulin dependent diabetes and hyperlipidemia associated with obesity and insulin resistance possible. Genetic models such as db/db and ob/ob (Diabetes, (1982) 31(1): 1-6) mice and zucker fa/fa rats have been developed by the various laboratories for understanding the pathophysiology of disease and testing the efficacy of new antidiabetic compounds (Diabetes, (1983) 32: 830-838; Annu. Rep. Sankyo Res. Lab. (1994). 46: 1-57). […]
The random blood sugar and triglyceride levels can be measured by collecting blood (100 μl) through orbital sinus, using heparinised capillary in tubes containing EDTA which was centrifuged to obtain plasma. The plasma glucose and triglyceride levels can be measured spectrometrically, by glucose oxidase and glycerol-3-PO4 oxidase/peroxidase enzyme (Dr. Reddy's Lab. Diagnostic Division Kits, Hyderabad, India) methods respectively.
The blood sugar and triglycerides lowering activities of the test compound are calculated according to the formula.
as §1

[2] = system: cholesterol fed Syrian Hamsters; assay: Body weight reducing effect in cholesterol fed hamsters; assay type: in vivo, hamster; settings: dose 3 mg/kg, oral, 15 days
Experimental: Male Syrian Hamsters are procured from NIN, Hyderabad, India. Animals are housed at DRF animal house under 12 hour light and dark cycle at 25±1° C. with free access to food and water. Animals are maintained with 1% cholesterol containing standard laboratory chow (NIN) from the day of treatment.
The test compounds can be administered orally at 1 to 30 mg/kg/day dose for 15 days. Control group animals are treated with vehicle (Mill Q water, dose 10 ml/kg/day). Body weights are measured on every 3rd day.
as §2

SMILES	melting point	further results
CCC(C)(Oc1ccc(OC/C=C(\C)c2ccc(-c3ccc(F)cc3)cc2)cc1)C(=O)O (centres unmarked) [Example 36]	122 to 125 °C	
C/C(=C\COc1ccc(OC2(C(=O)O)CCCC2)cc1)c1ccc(-c2ccccc2)cc1 [Example 47]	142 to 144 °C	
CC(C)(Oc1ccc(OC/C=C/c2ccc(OS(C)(=O)=O)cc2)cc1)C(=O)O [Example 45]	112 to 114 °C	
CCOC(=O)C1(Oc2ccc(OC/C=C(\C)c3ccc(-c4ccccc4)cc3)cc2)CCCC1 [Example 23]	112 to 114 °C	
CCOC(=O)C(C)(C)Oc1ccc(OC/C=C(\C)c2ccc3c(c2)Cc2ccccc2-3)cc1 [Example 7]	155 to 158 °C	
C/C(=C\COc1ccc(OC(C)(C)C(=O)O)cc1)c1ccc(-c2cc(Cl)cc(Cl)c2)cc1 [Example 38]	52 to 54 °C	
C/C(=C\COc1ccc(SC(C)(C)C(=O)O)cc1)c1ccc(-c2ccc(C(F)(F)F)cc2)cc1 [Example 42]	142 to 146 °C	
CCN1c2ccccc2Oc2ccc(/C(C)=C/COc3ccc(OC(C)(C)C(=O)O)cc3)cc21 [Example 32]	114 to 116 °C	
C/C(=C\COc1ccc(OC(C)(C)C(=O)O)cc1)c1ccc(-c2ccccc2)cc1 [Example 25, 2-[4-(3-Biphenyl-4-yl-but-2-enyloxy)phenoxy]-2-methyl propanoic acid]		Reduction in Body weight (%) [2]: 22%; Reduction in Total Cholesterol (%) [2]: 55%; Reduction in Triglyceride (%) [2]: 45%
C/C(=C\COc1ccc(OC(C)(C)C(=O)O)cc1)c1ccc2c(c1)Cc1ccccc1-2 [Example 31]	155 to 158 °C	
C/C(=C\COc1ccc(OC(C)(C)C(=O)O)cc1)c1ccc(-c2ccc(C(F)(F)F)cc2)cc1 [Example 40]	150 to 154 °C	PPARγ (hPPARγ1): 1.3; PPARα (hPPARα): 12.6
CC(C)C(Sc1ccc(OCCCc2ccc(OS(C)(=O)=O)cc2)cc1)C(=O)O (centres unmarked) [Example 28]	115 to 118 °C	
CC(C)(Oc1ccc(OCCCc2ccc(OS(C)(=O)=O)cc2)cc1)C(=O)O [Example 48]	64 to 66 °C	

More lines, main results first:

melting point	SMILES	further results
120 to 122 °C	CC(CCOc1ccc(OC(C)(C)C(=O)O)cc1)c1ccc(-c2ccccc2)cc1 (centres unmarked) [Example 49]	
184 to 188 °C	C/C(=C\CNc1ccc(OC(C)(C)C(=O)O)cc1)c1ccc(-c2ccccc2)cc1 [Example 35]	
172 to 174 °C	CC(C)(Oc1ccc(OC/C=C/c2ccc(-c3ccccc3)cc2)cc1)C(=O)O [Example 43]	
114 to 117 °C	CCC(C)(Oc1ccc(OC/C=C(\C)c2ccc(-c3ccccc3)cc2)cc1)C(=O)O (centres unmarked) [Example 37]	PPARγ (hPPARγ1): 2.8; PPARα (hPPARα): 12.2; Triglyceride Lowering (%) (Swiss albino mice): 71%; Reduction in Low Density Lipoprotien (%) ([1]; LDL calculated from total cholesterol, HDL and triglyceride): 64%; Increase in High Density Lipoprotien (%) ([1]; plasma): 70%; Reduction in Total Cholesterol (%) ([1]; plasma): 60%; Triglyceride Lowering (%) ([1]; plasma): 55%; Triglyceride Lowering (%) (C57BL/Ks-db/db mice): 52%
136 to 140 °C	C/C(=C\COc1ccc(OC(C(=O)O)C(C)C)cc1)c1ccc(-c2ccccc2)cc1 (centres unmarked) [Example 44]	
138 to 140 °C	CC(C)(Oc1ccc(OCCc2ccc(-c3ccccc3)cc2)cc1)C(=O)O [Example 30]	
162 to 165 °C	C/C(=C\COc1ccc(SC(C)(C)C(=O)O)cc1)c1ccc(-c2ccccc2)cc1 [Example 41]	
